# Laboratory results reported in publication PMC2719696, “Kinetics and Cellular Site of Glycolipid Loading Control the Outcome of Natural Killer T Cell Activation” (Immunity, 2009).
# Target: T1, mCD1d (Mus musculus, UniProt P11609)
# T1 construct: host or cells: JAWS II (C57BL/6.Trp53-/- derived dendritic cell line)
# T1 sequence (P11609 22-336): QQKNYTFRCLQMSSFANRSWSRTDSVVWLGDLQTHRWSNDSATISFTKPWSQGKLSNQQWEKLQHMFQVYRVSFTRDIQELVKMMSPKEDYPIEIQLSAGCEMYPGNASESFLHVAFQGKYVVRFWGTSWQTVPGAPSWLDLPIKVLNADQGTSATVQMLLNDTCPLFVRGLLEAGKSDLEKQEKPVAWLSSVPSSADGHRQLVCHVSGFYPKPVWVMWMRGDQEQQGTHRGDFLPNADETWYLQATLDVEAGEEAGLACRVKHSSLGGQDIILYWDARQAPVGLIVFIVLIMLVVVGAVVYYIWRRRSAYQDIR
# T1 sequence (P01887 21-119 partner): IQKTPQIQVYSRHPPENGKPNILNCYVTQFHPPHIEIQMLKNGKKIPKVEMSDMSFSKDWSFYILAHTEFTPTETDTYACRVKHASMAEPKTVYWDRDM
# Test: Confocal microscopy of L363 staining in JAWS II cells (surface and permeabilized)
# Assay type: cell-based
# Settings: for L363 surface staining of intact cells (confocal): 100 nM glycolipid, 1, 4 or 16 hr; for site of L363 staining in permeabilized cells: 1 hr incubation, co-stained for LAMP-1
# Procedure: To visualize the kinetics and sites of mCD1d loading by αGalCer analogs in live cells, we analyzed intact JAWS II cells for surface staining with mAb L363 after 1, 4, or 16 hr of incubation with αGalCer-C26:0 or with either of two Th2 cell-type cytokine-biasing analogs (αGalCer-C20:2 or -C10:0) (Figure 4A). Strong staining of the plasma membrane was seen after 16 hr of incubation in all cases. […] To image earlier steps in glycolipid loading, we permeabilized and fixed cells prior to staining with L363 and with an antibody to the late endosomal and lysosomal marker LAMP-1 (Figure 4A). […] At 4 hr, these complexes began to colocalize with LAMP-1, and only at 16 hr could clear surface staining be seen along with the persistent intracellular staining in LAMP-1^+ compartments (Figure 4A).
# Figure 4 Cell Surface versus Intracellular Loading of mCD1d with Different αGalCer Analogs (A) On the left, surface accumulation of CD1d-αGalCer complexes was studied with JAWS II cells harvested after incubation with the indicated glycolipids for 1, 4, or 16 hr and then stained without permeabilization with mAb L363 (red). Cells were then fixed, stained with DAPI for nuclei visualization (blue), and analyzed by confocal microscopy. On the right, the intracellular formation and trafficking of CD1d-αGalCer complexes were analyzed by treatment of JAWS II cells with αGalCer analogs for 1, 4, and 16 hr followed by fixation and permeabilization. The cells were stained for CD1d-αGalCer complexes (L363, red), late endosomes and lysosomes (anti-LAMP-1, green), and nuclei (DAPI, blue). Results are representative of three separate experiments. The scale bar represents 10 μm. (B) Murine iNKT cell hybridoma cells (DN3A4.1-2) were stimulated with αGalCer analogs. As APCs for these stimulations, we used A20 cells transfected with wild-type CD1d (CD1d.WT) or cytoplasmic-tail-deleted CD1d (CD1d.TD). Supernatant concentrations of IL-2 release were determined after 12 hr. IL-2 production over a range of concentrations is shown for αGalCer-C26:0 and two analogs that produce a Th2 cell-type cytokine bias (αGalCer-C20:2 and -PGB1).
# JAWS II cells were incubated at 37°C with 100 nM glycolipids for various times as indicated. For surface staining, live cells were harvested and washed extensively with PBS, resuspended in PBS + 1% BSA + 0.1% NaN3, stained on ice with 10 μg/ml Alexa Fluor 647-conjugated mAb L363 for 30 min, and lastly washed extensively and fixed with 4% paraformaldehyde. Cells were washed with PBS and settled onto poly-L-lysine-coated coverslips for 30 min and mounted with ProLong Gold with DAPI mounting medium (Invitrogen). For intracellular staining, JAWS II cells grown on glass coverslips were fixed in 4% paraformaldehyde, permeabilized with 0.05% Triton X-100 for 5 min, and stained with 10 μg/ml Alexa Fluor 647-conjugated L363 and FITC-conjugated anti-LAMP-1. Coverslips were washed and mounted. Confocal images were obtained with a Leica SP2 AOBS confocal microscope (Leica Microsystems). For colocalization of αGalCer/mCD1d complexes with ganglioside GM1-enriched plasma membrane lipid rafts, JAWS II cells were incubated for 18 hr at 37°C in complete medium without or with 100 nM of glycolipids. […] We performed quantitative analysis of colocalization by selecting 20–25 random cells in each group and determining a Pearson correlation coefficient for the distribution of pixel densities for K253 or L363 fluorescence compared to cholera toxin B-specific fluorescence. […]
Compound,L363 surface staining of intact cells (confocal),site of L363 staining in permeabilized cells
CCCCCCCCCCCCCCC(O)C(O)C(COC1OC(CO)C(O)C(O)C1O)NC(=O)CCCCCCCCC (centres unmarked) [αGalCer-C10:0],showed L363 staining at earlier time points,L363 staining was observed at the plasma membrane
CCCCCC=CCC=CCCCCCCCCCC(=O)NC(COC1OC(CO)C(O)C(O)C1O)C(O)C(O)CCCCCCCCCCCCCC (centres unmarked) [αGalCer-C20:2],showed L363 staining at earlier time points,L363 staining was observed at the plasma membrane
"CCCCCCCCCCCCCCCCCCCCCCCCCC(=O)NC(COC1OC(CO)C(O)C(O)C1O)C(O)C(O)CCCCCCCCCCCCCC (centres unmarked) [αGalCer-C26:0, reference compound]",–,observed only in a punctate intracellular distribution
